Results: patent publication US9586885B2, “Compounds for use in the treatment of inflammatory bowel disease” (Venantius Limited, priority 2011, dated 2017)
Read-outs that look alike come from different tables or passages of the source.

Legend:
[1] = Solubility in water and buffers; assay type: physicochemical; settings: for aqueous solubility (in words): free acid enantiomers
Experimental: The sodium salt, potassium salt, calcium salt, α-methylbenzylamine salt and N-Methyl-(D)-Glucamine salt were synthesised.
The solubility of the four compounds was determined: […]

5% DSS colitis = experiment: Acute murine 5% DSS colitis model; assay type: in vivo; settings: for effect on DAI compared to vehicle control: FIG. 5; for inhibition of colon shortening (colon length) day 7 versus vehicle: FIG. 10; for colon pathology (histology score) relative to vehicle: FIG. 12; for colon IL1β level versus DSS vehicle / colon TNFα level versus DSS vehicle / colon IL6 level versus DSS vehicle / reduction of colonic myeloperoxidase (MPO) activity: day 7; for colon IL1β level versus DSS vehicle: FIG. 14(a); for colon TNFα level versus DSS vehicle: FIG. 14(b); for colon IL6 level versus DSS vehicle: FIG. 14(c); for reduction of colonic myeloperoxidase (MPO) activity: FIG. 13; for DAI on the day of autopsy versus vehicle controls: FIG. 9
Source text: The study is widely used as a model for studying the pathogenesis of UC and also for screening new therapeutic interventions for the treatment of UC.
In these studies, an acute colitis model was used, with 5% DSS administered in the drinking water of BALB/c mice. This dosage regime induces severe acute colitis, by days 7-8 mice had overt rectal bleeding and marked weight loss; unless sacrificed beforehand, all mice would have died by days 10-12.
Specific Pathogen-Free BALB/c mice, 6-8 weeks of age, were obtained from a commercial supplier (Harlan UK). Mice were fed irradiated diet and housed in individually ventilated cages (Tecniplast UK) under positive pressure.
DSS (5%) was dissolved in drinking water. Compounds were administered orally at a dose of 10 mg/kg or 30 mg/kg on days 0-7, and mice were culled on day 8 or day 9, depending on the severity of the disease. The mice were checked each day for morbidity and the weight of individual mice was recorded. Induction of colitis was determined upon autopsy, length of colon and histology. Colons were recovered and stored at −20° C. for immunological analysis. All of the compounds and experimental groups are randomly alphabetically labelled. Throughout experiments all data recording was performed in a blind manner. The codes on boxes/groups were not broken until after the data was analysed i.e. boxes labelled A, B, C etc were identified as untreated, DSS-treated, or DSS+compound-treated.
To quantify the extent of colitis, a disease activity index (DAI) was determined based on weight loss, faecal blood and stool consistency. A score was given for each parameter, with the sum of the scores used as the DAI. For each treatment group n=8.
All compounds were prepared for oral gavage (0.1 mL per os (p.o.) per 10 g body weight) as a suspension in 0.5% carboxymethyl cellulose/2% Tween 80, at a dose of 3-30 mg/Kg.

[2] = Partition coefficient by HPLC method (reverse phase C18); assay type: physicochemical; settings: for Acid Log10 POW: acidic pH; for Basic Log10 POW: alkaline pH; for Neutral Log10 POW: neutral pH
[3] = test system: chronic colitis in IL10^--/-- mice; experiment: Chronic IL10-/- colitis model; assay type: in vivo, BALB/c strain mice; settings: 300 mg/kg/week oral, MWF
Experimental: FIG. 15 Is a grph showing weight loss in IL10^--/--mice treated with vehicle or compound 6. Mice were administered compound 6 (300 mg/kg/week) or vehicle orally on a Monday/Wednesday/Friday (MWF) dosing schedule. Mice were ˜4 weeks of age at start of experiment and were treated for 9 weeks. Mice were weighed weekly and data are presented as Mean±SEM from 9-12 mice per group. Mice were monitored for overt disease, rectal prolapse, and moribund animals were humanely killed;
Mice with a deletion in the IL10^--/-- gene spontaneously develop chronic colitis, with the age of onset and the severity of the disease being dependent on background mouse strain and the conditions in which the animals are housed. The onset of colitis in IL10^--/-- mice housed under the conditions used in this study was also strain dependent, with an earlier onset and greater severity, in terms of mortality, in BALB/c strain mice relative to C57BL/6 strain animals. In this experiment, animals received oral treatment on a MWF regime over 9 weeks. Initially, both groups of mice progressively gain weight (FIG. 15). […] By week 9 animals had marked weight loss, with one moribund animal humanely killed on day 60 in each group. As other mice were losing weight and developing clinical symptoms of disease, both groups were culled at week 9 (day 63) and analysed. […] Serum was recovered from mice and Serum Amyloid A (SAA) and was analysed as a marker for severity of colitis.

[4] = 10 mg/kg daily for 7 days, vehicle 9.3±0.51, FIG. 6
[5] = 30 mg/kg p.o. daily for 7 days, vehicle controls 9.0+0.53, FIG. 4

With `O=C(O)c1ccc(C[C@@]2(C3=Cc4ccccc4C3)Cc3ccccc3[C@H]2O)cc1` (single isomer, unassigned) [Compound 2] the “aqueous solubility (in words)” value [1] was “limited aqueous solubility”, the “disease activity index (DAI) at day 7” value (5% DSS colitis; [4]) was 2.1±0.7 and the “activity in 5% DSS murine colitis model (conclusion)” value (5% DSS colitis; 30 mg/kg p.o. daily for 7 days) was “highly active”. The “disease activity index (DAI) at day 7” value (5% DSS colitis; [5]) was 2.5±0.71.

In the case of `O=C(O)c1ccc(C[C@]2(C3=Cc4ccccc4C3)Cc3ccccc3[C@@H]2O)cc1` (single isomer, unassigned) [Compound 3], the “activity in 5% DSS murine colitis model (conclusion)” value (5% DSS colitis; 30 mg/kg p.o. daily for 7 days) was “minimal activity”, the “disease activity index (DAI) at day 7” value (5% DSS colitis; [5]) was 5.3±0.6 and the “DAI versus vehicle at day 6” value (5% DSS colitis; 30 mg/kg p.o. daily, FIG. 3) was “no statistical (P>0.05) difference”.

With `O=C(O)c1ccc(C[C@@]2(C3=Cc4ccccc4C3)Cc3ccccc3[C@@H]2O)cc1` [Compound 4, 4-(((1R,2S)-1-hydroxy-2,3-dihydro-1H,1′H-2,2′-biinden-2-yl)methyl)benzoic acid] the “activity in 5% DSS murine colitis model (conclusion)” value (5% DSS colitis; 30 mg/kg p.o. daily for 7 days) was “almost devoid of activity” and the “DAI versus vehicle at any time point” value (5% DSS colitis; 30 mg/kg p.o. daily for 7 days, FIG. 3) was “without activity”.

With `O=C(O)c1ccc(C[C@]2(C3=Cc4ccccc4C3)Cc3ccccc3[C@H]2O)cc1` [Compound 5, 4-(((1S,2R)-1-hydroxy-2,3-dihydro-1H,1′H-2,2′-biinden-2-yl)methyl)benzoic acid] the “aqueous solubility (in words)” value [1] was “limited aqueous solubility”, the “Acid Log10 POW” value [2] was 3.9 and the “Basic Log10 POW” value [2] was 3.7. For the same molecule, the “Neutral Log10 POW” value [2] was 3.7, the “effect on DAI compared to vehicle control” value (5% DSS colitis; 10 mg/kg daily for 7 days) was “no significant (P>0.05) effect” and the “activity in 5% DSS murine colitis model (conclusion)” value (5% DSS colitis; 30 mg/kg p.o. daily for 7 days) was “highly active”. The “disease activity index (DAI) at day 7” value (5% DSS colitis; [5]) was 3.2±0.73.

`O=C(O)c1ccc(C[C@@]2(C3=Cc4ccccc4C3)Cc3ccccc3[C@H]2O)cc1` [Compound 6, 6-(Methylamino)hexane-1,2,3,4,5-pentanol 4-(((1S,2S)-1-hydroxy-2,3-dihydro-1H,1′H-2,2′-biinden-2-yl)methyl)benzoate] gave a solubility ([1]; Milli-RO water, * = estimated value, read-out: solubility Milli-RO H20) of over 60 mg/mL, a solubility ([1]; aqueous buffer, pH 7.0 buffer, * = estimated value, read-out: solubility pH 7.0 Buffer) of over 60 mg/mL and a solubility ([1]; aqueous buffer, pH 9.0 buffer, * = estimated value, read-out: solubility pH 9.0 Buffer) of over 3 mg/mL. For the same molecule, the “Acid Log10 POW” value [2] was 2.6, the “Basic Log10 POW” value [2] was 4.3 and the “Neutral Log10 POW” value [2] was 3.5. The “survival over 9 weeks by Kaplan-Meier analysis versus vehicle” value [3] was “no statistical difference in survival”, the mortalities ([3]; 9 weeks, vehicle 25%) was 9.2% and the weight gain ([3]; 9 weeks, vehicle stopped gaining from week 5, FIG. 15) was “maintained weight gain until week 8”. For the same molecule, the “Serum Amyloid A (SAA) levels relative to vehicle” value ([3]; week 9, FIG. 16) was “significantly (P<0.05; Student's t-test) reduced SAA levels”, the “extent of colon pathology (histology score of distal colon) relative to vehicle” value ([3]; week 9, P<0.05, FIG. 18) was “significantly reduced” and the “inhibition of colon shortening (colon length) day 7 versus vehicle” value (5% DSS colitis; 3 mg/kg) was “did not have a significant effect”. For the same molecule, the “colon pathology (histology score) relative to vehicle” value (5% DSS colitis; 10 mg/Kg, P<0.01) was “highly statistically significant reduction”, the “disease activity index (DAI) at day 7” value (5% DSS colitis; [4]) was 3.3±0.52 and the “inhibition of colon shortening (colon length) day 7 versus vehicle” value (5% DSS colitis; 10 mg/kg) was “did have a significant effect”. The “therapeutic efficacy in the DSS model relative to prednisolone” value (5% DSS colitis; 30 mg/Kg versus prednisolone 5 mg/Kg) was “comparable, or better, efficacy relative to prednisolone”, the “colon pathology (histology score) relative to vehicle” value (5% DSS colitis; 30 mg/Kg, P<0.01) was “highly statistically significant reduction” and the “colon length day 7 compared with Prednisolone” value (5% DSS colitis; 30 mg/kg versus Prednisolone 5 mg/kg, P<0.05) was “significantly better than Prednisolone”. The “colon IL1β level versus DSS vehicle” value (5% DSS colitis; 30 mg/kg) was “significant (P<0.05, 30 mg/kg) and dose-dependant reduction”, the “colon TNFα level versus DSS vehicle” value (5% DSS colitis; 30 mg/kg) was “significant (P<0.05, 30 mg/kg) and dose-dependant reduction” and the “colon IL6 level versus DSS vehicle” value (5% DSS colitis; 30 mg/kg) was “significant (P<0.05, 30 mg/kg) and dose-dependant reduction”. For the same molecule, the “reduction of colonic myeloperoxidase (MPO) activity” value (5% DSS colitis; 30 mg/kg, P<0.05) was 63%, the “inhibition of colon shortening (colon length) day 7 versus vehicle” value (5% DSS colitis; 30 mg/kg) was “did have a significant effect” and the “severity of colitis, multiple parameters of disease” value (5% DSS colitis; 3, 10 and 30 mg/Kg oral daily for 7 days, dose-dependent) was “ameliorated the severity of colitis”. For the same molecule, the “DAI on the day of autopsy versus vehicle controls” value (5% DSS colitis; 3-30 mg/kg, each dose level) was “significantly (P<0.05−P<0.01) lower DAI” and the “overt reactions in mice” value (5% DSS colitis; oral daily for 7 days, 3, 10 and 30 mg/Kg) was “no overt reactions”.

With `CNCC(O)C(O)C(O)C(O)CO.O=C(O)c1ccc(C[C@]2(C3=Cc4ccccc4C3)Cc3ccccc3[C@H]2O)cc1` [Compound 7, 6-(Methylamino)hexane-1,2,3,4,5-pentanol 4-(((1S,2R)-1-hydroxy-2,3-dihydro-1H,1′H-2,2′-biinden-2-yl)methyl)benzoate] the “solubility Milli-RO H20” value ([1]; Milli-RO water, * = estimated value, listed as Compound 5 N-Methyl-D-Glucamine salt) was >60,000* μg/mL, the “solubility pH 4.0 Buffer” value ([1]; pH 4.0 buffer) was 0.14 μg/mL and the “solubility pH 7.0 Buffer” value ([1]; pH 7.0 buffer, * = estimated value, listed as Compound 5 N-Methyl-D-Glucamine salt) was >60,000* μg/mL. The “solubility pH 9.0 Buffer” value ([1]; pH 9.0 buffer, * = estimated value, listed as Compound 5 N-Methyl-D-Glucamine salt) was >60,000* μg/mL, the “Acid Log10 POW” value [2] was 3.8 and the “Basic Log10 POW” value [2] was 3.5. For the same molecule, the “Neutral Log10 POW” value [2] was 3.5 and the “effect on DAI compared to vehicle control” value (5% DSS colitis; 10 mg/kg daily for 7 days) was “no significant (P>0.05) effect”.

In the case of `C[C@]12C=CC(=O)C=C1CC[C@@H]1[C@@H]2[C@@H](O)C[C@@]2(C)[C@H]1CC[C@]2(O)C(=O)CO` [Prednisolone, reference compound], the “colon pathology (histology score) relative to vehicle” value (5% DSS colitis; 5 mg/Kg) was “no significant improvement”, the “colon IL1β level versus DSS vehicle” value (5% DSS colitis; 5 mg/kg) was “reduced (p<0.05)” and the “colon TNFα level versus DSS vehicle” value (5% DSS colitis; 5 mg/kg) was “reduced (p<0.05)”. The “colon IL6 level versus DSS vehicle” value (5% DSS colitis; 5 mg/kg) was “reduced (p<0.05)”, the “reduction of colonic myeloperoxidase (MPO) activity” value (5% DSS colitis; 5 mg/kg, P<0.05) was 54% and the “DAI on the day of autopsy versus vehicle controls” value (5% DSS colitis; 5 mg/kg) was “reduced DAI scores”. The “inhibition of colon shortening (colon length) day 7 versus vehicle” value (5% DSS colitis; 5 mg/kg) was “did have a significant effect”.
